Data from ChEMBL document CHEMBL1201862, “PubChem BioAssay data set” (2004).
Active and inactive are the calls of the source.

Experiments:
[1] = molecular target: T1, Streptokinase A (Streptococcus pyogenes serotype M1, UniProt P10520); experiment: viability-normalized secreted streptokinase activity reduction – plasminogen activation absorbance, OD405, dose response (AID 1914); assay type: functional, Streptococcus pyogenes M1 GAS;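 note: secreted streptokinase activity via plasminogen activation per viability signal from cell pellet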
T1 sequence (P10520 whole entry): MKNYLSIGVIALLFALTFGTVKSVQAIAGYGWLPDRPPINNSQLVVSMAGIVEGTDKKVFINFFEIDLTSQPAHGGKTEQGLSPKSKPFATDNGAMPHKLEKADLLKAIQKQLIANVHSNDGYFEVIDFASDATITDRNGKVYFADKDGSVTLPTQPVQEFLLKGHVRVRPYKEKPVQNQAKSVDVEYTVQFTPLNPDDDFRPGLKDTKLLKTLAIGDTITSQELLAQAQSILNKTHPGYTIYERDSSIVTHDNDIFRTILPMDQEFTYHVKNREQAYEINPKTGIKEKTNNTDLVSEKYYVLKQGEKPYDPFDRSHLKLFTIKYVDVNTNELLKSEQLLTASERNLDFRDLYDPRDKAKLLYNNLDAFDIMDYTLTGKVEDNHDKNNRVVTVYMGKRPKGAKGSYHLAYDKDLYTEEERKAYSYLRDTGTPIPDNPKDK

[2] = system: Streptococcus; experiment: GAS UMAA2166 growth inhibition – luminescence, BacTiterGlo, counter-screen for streptokinase expression inhibitor project, dose response (AID 1915); assay type: functional, organism-based; conditions: Streptococcus;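 note: potency for reduction of bacterial viability or growth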
[3] = molecular target: T2, G-protein coupled receptor 55 (Homo sapiens, UniProt Q9Y2T6); experiment: inhibition of LPI-stimulated GPR55 beta-arrestin translocation – imaging, U2OS, beta-arrestin-GFP, LPI agonist, primary screen (AID 2013); assay type: functional;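 note: antagonist potency measured as reduced agonist-driven arrestin aggregation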
[4] = system: Streptococcus sp. 'group A'; experiment: Streptococcus pyogenes SK(-)GAS viability under kanamycin – luminescence, BacTiterGlo, confirmation, counter-screen for streptokinase expression inhibitor project, dose response (AID 1900); assay type: functional, organism-based; conditions: Streptococcus sp. 'group A'
[5] = molecular target: Troponin, cardiac muscle (Homo sapiens, UniProt P19429+P45379+P63316); experiment: Fluorescence-based biochemical high throughput dose response assay for activators of the calcium sensitivity of cardiac Regulated Thin Filaments (RTF). [Related pubchem assays (depositor defined):AID493008, AID493018, AID504382, AID504383]; assay type: protein-complex assay
[6] = molecular target: T3, CAAX prenyl protease 2 (Homo sapiens, UniProt Q9Y256); experiment: inhibition of Ras-converting CAAX protease Rce1 – biochemical, yeast membranes, quenched-peptide fluorescence, cherry-pick, dose response (AID 588849)
T3 sequence (Q9Y256 whole entry): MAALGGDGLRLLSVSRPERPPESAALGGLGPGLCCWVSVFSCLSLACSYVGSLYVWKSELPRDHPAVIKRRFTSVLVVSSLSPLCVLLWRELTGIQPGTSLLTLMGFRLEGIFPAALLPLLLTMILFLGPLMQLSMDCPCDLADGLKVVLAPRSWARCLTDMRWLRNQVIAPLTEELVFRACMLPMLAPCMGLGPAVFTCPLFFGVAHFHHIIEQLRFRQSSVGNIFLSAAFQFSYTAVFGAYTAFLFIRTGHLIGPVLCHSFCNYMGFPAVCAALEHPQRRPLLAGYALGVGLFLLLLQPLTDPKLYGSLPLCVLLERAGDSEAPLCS

[7] = molecular target: CAAX prenyl protease 2 (Saccharomyces cerevisiae S288c, UniProt Q03530); assay type: biochemical
[8] = molecular target: Peroxisome proliferator-activated receptor gamma (Homo sapiens, UniProt P37231); experiment: PPARg transcriptional activation, reporter cells – cell-based, luminescence, assay provider, dose response (AID 504447); assay type: functional
[9] = molecular target: Genome polyprotein (dengue virus type 2, UniProt P29990); experiment: flavivirus cap methylation enzyme inhibition – biochemical, confirmation dose response, primary screen (AID 588689); assay type: functional
[10] = molecular target: T4, Runt-related transcription factor 1/Core-binding factor subunit beta (Homo sapiens, UniProt Q01196+Q13951); experiment: Confirmation of compounds inhibiting the binding between the RUNX1 Runt domain and CBFb-SMMHC via a time resolved fluorescence resonance energy transfer (TR-FRET) assay. [Related pubchem assays (depositor defined):AID1434, AID1438, AID1496, AID1560, AID1645]; assay type: protein assay
[11] = molecular target: T2, G-protein coupled receptor 55; experiment: selective activators of receptor GPR55 – imaging, U2OS cells, beta-arrestin-GFP redistribution, primary screen (AID 1961); assay type: functional
[12] = molecular target: T4, Runt-related transcription factor 1/Core-binding factor subunit beta; experiment: Confirmation of compounds inhibiting the binding between the RUNX1 Runt domain and CBFb-SMMHC via a fluorescence resonance energy transfer (FRET) assay. [Related pubchem assays (depositor defined):AID1434, AID1438, AID1496, AID1550, AID1645]; assay type: protein assay
[13] = molecular target: Heat shock protein HSP 90-alpha (Homo sapiens, UniProt P07900); assay type: functional, organism-based
[14] = molecular target: T4, Runt-related transcription factor 1/Core-binding factor subunit beta; experiment: Runt domain/CBFb-SMMHC interaction disruptors – biochemical, TR-FRET (AID 1438); assay type: protein assay
[15] = molecular target: T4, Runt-related transcription factor 1/Core-binding factor subunit beta; experiment: disruptors of Runt domain/CBFb-SMMHC interaction – biochemical, FRET, Cerulean-Runt, Venus-CBFb-SMMHC, uHTS, […] (AID 1434); assay type: protein assay
[16] = molecular target: T5, Heat shock factor protein 1 (Mus musculus, UniProt P38532); experiment: enhancement of HSF1-driven luciferase signal – cell-based, NIH3T3, luminescence, dose retest, confirmation (AID 435004); assay type: functional;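 note: stress induced by proteasome inhibitor MG132 added 30 min after compound; luciferase reporter driven by HSF1 response element in NIH3T3 cells; actives raise luminescence as potentiators of the MG132 stress response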
T5 sequence (P38532 whole entry): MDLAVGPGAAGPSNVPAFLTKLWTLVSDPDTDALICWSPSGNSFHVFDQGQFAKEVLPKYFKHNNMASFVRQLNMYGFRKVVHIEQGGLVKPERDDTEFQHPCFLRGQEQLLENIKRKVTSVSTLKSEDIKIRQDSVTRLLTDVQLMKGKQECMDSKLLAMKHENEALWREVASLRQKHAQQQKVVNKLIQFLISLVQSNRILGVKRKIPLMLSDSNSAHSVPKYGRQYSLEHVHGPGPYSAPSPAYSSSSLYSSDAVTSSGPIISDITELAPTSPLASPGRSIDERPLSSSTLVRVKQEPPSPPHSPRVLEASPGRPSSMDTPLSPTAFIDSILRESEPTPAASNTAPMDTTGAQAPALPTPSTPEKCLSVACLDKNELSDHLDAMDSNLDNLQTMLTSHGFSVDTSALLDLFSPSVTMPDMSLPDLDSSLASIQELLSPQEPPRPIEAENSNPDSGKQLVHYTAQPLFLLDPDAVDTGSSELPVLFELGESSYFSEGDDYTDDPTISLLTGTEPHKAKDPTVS

[17] = molecular target: T6, Coagulation factor XII (Homo sapiens, UniProt P00748); experiment: Factor XIIa Dose Response Confirmation from Single Well HTS. [Related pubchem assays (depositor defined):AID701]; assay type: functional
T6 sequence (P00748 whole entry): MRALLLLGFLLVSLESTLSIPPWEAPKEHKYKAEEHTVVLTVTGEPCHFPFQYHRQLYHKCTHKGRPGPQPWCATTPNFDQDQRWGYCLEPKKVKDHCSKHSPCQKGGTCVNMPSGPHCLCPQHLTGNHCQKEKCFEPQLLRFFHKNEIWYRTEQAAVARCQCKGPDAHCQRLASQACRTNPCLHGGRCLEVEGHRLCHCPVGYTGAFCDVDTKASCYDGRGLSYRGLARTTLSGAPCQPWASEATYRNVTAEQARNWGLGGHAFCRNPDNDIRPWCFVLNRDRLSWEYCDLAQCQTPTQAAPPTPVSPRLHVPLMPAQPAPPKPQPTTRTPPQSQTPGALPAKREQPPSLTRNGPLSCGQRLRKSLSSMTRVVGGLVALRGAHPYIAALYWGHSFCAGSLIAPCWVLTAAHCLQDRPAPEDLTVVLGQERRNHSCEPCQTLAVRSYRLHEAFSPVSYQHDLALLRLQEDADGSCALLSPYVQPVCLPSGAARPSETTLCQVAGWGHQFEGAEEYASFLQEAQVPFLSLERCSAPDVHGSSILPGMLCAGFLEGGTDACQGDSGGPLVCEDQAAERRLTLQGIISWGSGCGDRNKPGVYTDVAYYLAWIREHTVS

With `c1ccc2c(-c3c[nH]c4ccccc34)c3ccccc3nc2c1` the EC50 [1] was > 150 µM (not active), the EC50 [2] was 15.8 µM (active) and the IC50 [3] was 4.83 µM (active). The EC50 [4] was 8.94 µM (active).
In the case of `CC1=CC(=C(C#N)C#N)C=C(C)N1Cc1ccc(Cl)cc1`, the EC50 [5] is reported as > 71.5 µM (inactive).
With `CN1c2ccccc2-c2nc3ccccc3n2C1c1ccncc1` (configuration not stated) the AC50 [6] was 2.65 µM (active) and the AC50 [7] was 68.9 µM (active).
In the case of `CN1CCN(S(=O)(=O)c2ccc(Sc3nc4ccccc4[nH]3)c3nsnc23)CC1`, the EC50 [8] is reported as 7.6 µM (active).
`O=C1C=CC(=O)N1N(c1ccccc1)c1ccccc1` was tested, and the IC50 [9] was 41.6 µM (active), the IC50 [10] was 16.5 µM (active) and the EC50 [11] was > 32 µM (inactive). The IC50 [12] was 10.3 µM (active), the AC50 [13] was 4.16 µM (active) and the IC50 [14] was 21.4 µM (active). For the same compound, the IC50 [15] was 10.1 µM (active) and the EC50 [16] was 4.95 µM (active).
`CC1=CC(=NOC(=O)c2cccc([N+](=O)[O-])c2)C=C(C)C1=O` was tested, and the IC50 [17] was 1.94 µM (active).
